Data taken from publication PMC2746281 (PLoS ONE, 2009).

Experiments:
c-Met = target: T1, c-Met (Homo sapiens, UniProt P08581); assay: Recombinant kinase ELISA assay, c-Met; type: biochemical; conditions: recombinant human enzyme; ELISA-based assay, poly(Glu,Tyr 4:1) substrate
T1 construct: c-Met (949–1398); 6xHN (N); made in house; host or cells: baculovirus, Sf9 insect cells
Method: (§1) Full details for the generation of recombinant human KIT intracellular domain and other protein kinases (including Lyn, platelet derived growth factor receptor β, epidermal growth factor receptor, fibroblast growth factor receptor 1, Src, HCK, PYK, FES, Btk, Bmx, c-Ret, c-Fms, Syk, and c-Met) are provided in the Supplemental Methods (see Supporting Information; Methods S1). Experiments on ABL1, Akt1, protein kinase C-α, insulin-like growth factor receptor 1, and Pim1 were carried out by Proqinase (Germany). All other recombinant protein kinases were performed in-house using an enzyme-linked immunoassay; experimental details are provided in the Supplemental Methods (see Supporting Information; Methods S1).
(§2) The sequences encoding PDGF receptor β (residues 554–1106; GenBank accession no. BC032224), Lyn B (2–583; accession no. BC059394), fibroblast growth factor receptor 1 (572–959; accession no. BC018128), Src (2–536; accession no. BC011566), Btk (2–659; accession no. BC109079), Bmx (2–675; accession no. BC016652), c-Ret (713–1114; accession no. BC004257), c-Fms (538–972; BC047531), Syk (2–612; BC011399), Hck (2-526; accession no. BC014435), Fes (2-822; accession no. BC035357), PYK2 (2-1006; accession no. BC042599) and c-Met (949–1398; accession no. lifeseq3489592) were amplified by PCR from IMAGE cDNA clones purchased from Openbiosystems. […]

[1] = target: Insulin-like growth factor-I receptor (Homo sapiens, UniProt P08069); assay: Ba/F3 cell proliferation (WST-1), IGF-I receptor; set-up: expressed in transfected cells; host or cells: Ba/F3 (general description; not repeated for this kinase); conditions: Ba/F3 cells expressing the enzyme, read-out: Cell-based assay IC50, Insulin-like growth factor-I receptor
c-Fms = target: T2, c-Fms (Homo sapiens, UniProt P07333); assay: Ba/F3 cell proliferation (WST-1), c-Fms; conditions: Ba/F3 cells expressing the enzyme, read-out: Cell-based assay IC50, c-Fms
T2 construct: expressed in transfected cells; host or cells: Ba/F3 (general description; not repeated for this kinase)

VEGFR1 = VEGFR1 (Homo sapiens, UniProt P17948); assay: Recombinant kinase ELISA assay, VEGFR1; type: biochemical; conditions: recombinant human enzyme; ELISA-based assay, poly(Glu,Tyr 4:1) substrate
Method: as §1
(§3) A 96-well microtitre plate (Immulon 2HB; ThermoLifeScience, Finland) was coated overnight with 0.25 mg/ml poly(Glu,Tyr 4:1), rinsed twice with 250 µl of washing buffer (10 mM phosphate-buffered saline [pH 7.4] and 0.05% Tween 20) and dried for 2 hours at room temperature. […] Reactions were initiated upon introduction of the enzyme and terminated with the addition of one reaction volume (50 μl) of 100 mM EDTA per 5 M urea mix. […] The final reaction product was quantified by spectrophotometry at 450 nm.

Btk = target: T3, Btk (Homo sapiens, UniProt Q06187); assay: Recombinant kinase ELISA assay, Btk; type: biochemical; conditions: recombinant human enzyme; ELISA-based assay, poly(Glu,Tyr 4:1) substrate
T3 construct: Btk (2–659; BC109079); 6xHN (N); made in house; host or cells: baculovirus, Sf9 insect cells
Method: as §1, §2

[2] = tested on: murine bone marrow mast cell (BMMC); assay: Transwell migration of BMMC in response to rmSCF; type: cell-based; conditions: Mus musculus, 4 hours, read-out: inhibition of migration of SCF-stimulated BMMCs relative to the control
Method: Migration of murine BMMCs was evaluated using a transwell migration assay [35]. […] Filters were then placed in wells containing 600 µL of chemotaxis buffer supplemented with or without 10 ng/mL of rmSCF, for stimulated or unstimulated BMMCs, respectively. After 4 hours incubation at 37°C in 5% CO2, cells from the bottom chamber were resuspended and counted using a FACS Scan over 20 seconds. All assays were performed in triplicate and counts were repeated twice for each well. For tyrosine kinase inhibitor treatment, 1×10^7 mast cells were pretreated for 1.5 hours at 37°C in complete medium (OPTI MEM, 10% foetal calf serum (FCS), 1% antibiotics and 2-mercaptoethanol 5×10^−5 M, 10 ng/ml rIL3) either with 1 µM of inhibitor or an equivalent volume of DMSO.

Pim1 = target: T4, Pim1 (Homo sapiens, UniProt P11309); assay: Recombinant kinase screen (Proqinase), Pim1; type: biochemical; conditions: recombinant human enzyme; single experiment, kinase screen by Proqinase
T4 construct: purchased Proqinase (Germany)
Method: as §1

[3] = target: T5, Epidermal growth factor receptor (Homo sapiens, UniProt P00533); assay: Ba/F3 cell proliferation (WST-1), EGFR; conditions: Ba/F3 cells expressing the enzyme, read-out: Cell-based assay IC50, Epidermal growth factor receptor
[4] = target: T6, Proline-rich Tyrosine kinase (FAK2/PYK2) (Homo sapiens, UniProt Q14289); assay: Recombinant kinase ELISA assay, PYK2; type: biochemical; conditions: recombinant human enzyme; ELISA-based assay, poly(Glu,Tyr 4:1) substrate
T6 construct: PYK2 (2-1006; BC042599); 6xHN (N); made in house; host or cells: baculovirus, Sf9 insect cells
Method: as §1, §2

[5] = target: T5, Epidermal growth factor receptor; assay: Recombinant kinase ELISA assay, EGFR; type: biochemical; set-up: The cDNA encoding the EGF receptor (664–1210); 6xHN (N); made in house; host or cells: baculovirus, Sf9 insect cells; conditions: recombinant human enzyme; ELISA-based assay, poly(Glu,Tyr 4:1) substrate
Method: as §1, §3
Target sequence in this assay (P00533 664-1210): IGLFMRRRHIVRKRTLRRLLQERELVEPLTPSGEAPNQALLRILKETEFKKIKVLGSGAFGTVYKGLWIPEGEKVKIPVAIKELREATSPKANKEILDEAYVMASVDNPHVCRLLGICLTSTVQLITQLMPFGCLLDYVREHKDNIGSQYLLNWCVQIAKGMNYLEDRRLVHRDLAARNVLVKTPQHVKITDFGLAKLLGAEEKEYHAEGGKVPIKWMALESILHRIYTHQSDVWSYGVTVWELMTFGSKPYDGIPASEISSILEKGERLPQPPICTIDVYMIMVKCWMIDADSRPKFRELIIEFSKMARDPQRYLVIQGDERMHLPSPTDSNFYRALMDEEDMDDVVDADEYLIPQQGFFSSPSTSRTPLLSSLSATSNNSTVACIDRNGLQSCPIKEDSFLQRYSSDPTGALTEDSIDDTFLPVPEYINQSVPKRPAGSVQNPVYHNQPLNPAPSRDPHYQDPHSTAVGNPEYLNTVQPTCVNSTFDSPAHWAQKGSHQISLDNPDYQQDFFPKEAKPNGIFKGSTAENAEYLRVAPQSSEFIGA

Src = target: T7, Src (Homo sapiens, UniProt P12931); assay: Recombinant kinase ELISA assay, Src; type: biochemical; conditions: recombinant human enzyme; ELISA-based assay, poly(Glu,Tyr 4:1) substrate
T7 construct: Src (2–536; BC011566); 6xHN (N); made in house; host or cells: baculovirus, Sf9 insect cells
Method: as §1, §3

FMA3 cells = assay: Mastocytoma cell line proliferation (WST-1), FMA3; type: cell-based, murine; conditions: Mus musculus, 48 h; 2 days; KIT juxtamembrane mutation
Method: (B) western blotting analysis of HMC-1α155 tyrosine phosphorylation. […] (D) Western blotting analysis of BMMC tyrosine phosphorylation. Cell proliferation was assessed by WST-1 colorimetric assay. […] MW = molecular weight.

Tyk2 = target: T8, Tyk2 (Homo sapiens, UniProt P29597); assay: Ba/F3 cell proliferation (WST-1), Tyk2; conditions: Ba/F3 cells expressing the enzyme, read-out: Cell-based assay IC50, Tyk2
T8 construct: expressed in transfected cells; host or cells: Ba/F3

Jak1 = target: T9, Jak1 (Homo sapiens, UniProt P23458); assay: Ba/F3 cell proliferation (WST-1), Jak1; conditions: Ba/F3 cells expressing the enzyme, read-out: Cell-based assay IC50, Jak1
T9 construct: expressed in transfected cells; host or cells: Ba/F3

Sequence of VEGFR1 (P17948 27-1338): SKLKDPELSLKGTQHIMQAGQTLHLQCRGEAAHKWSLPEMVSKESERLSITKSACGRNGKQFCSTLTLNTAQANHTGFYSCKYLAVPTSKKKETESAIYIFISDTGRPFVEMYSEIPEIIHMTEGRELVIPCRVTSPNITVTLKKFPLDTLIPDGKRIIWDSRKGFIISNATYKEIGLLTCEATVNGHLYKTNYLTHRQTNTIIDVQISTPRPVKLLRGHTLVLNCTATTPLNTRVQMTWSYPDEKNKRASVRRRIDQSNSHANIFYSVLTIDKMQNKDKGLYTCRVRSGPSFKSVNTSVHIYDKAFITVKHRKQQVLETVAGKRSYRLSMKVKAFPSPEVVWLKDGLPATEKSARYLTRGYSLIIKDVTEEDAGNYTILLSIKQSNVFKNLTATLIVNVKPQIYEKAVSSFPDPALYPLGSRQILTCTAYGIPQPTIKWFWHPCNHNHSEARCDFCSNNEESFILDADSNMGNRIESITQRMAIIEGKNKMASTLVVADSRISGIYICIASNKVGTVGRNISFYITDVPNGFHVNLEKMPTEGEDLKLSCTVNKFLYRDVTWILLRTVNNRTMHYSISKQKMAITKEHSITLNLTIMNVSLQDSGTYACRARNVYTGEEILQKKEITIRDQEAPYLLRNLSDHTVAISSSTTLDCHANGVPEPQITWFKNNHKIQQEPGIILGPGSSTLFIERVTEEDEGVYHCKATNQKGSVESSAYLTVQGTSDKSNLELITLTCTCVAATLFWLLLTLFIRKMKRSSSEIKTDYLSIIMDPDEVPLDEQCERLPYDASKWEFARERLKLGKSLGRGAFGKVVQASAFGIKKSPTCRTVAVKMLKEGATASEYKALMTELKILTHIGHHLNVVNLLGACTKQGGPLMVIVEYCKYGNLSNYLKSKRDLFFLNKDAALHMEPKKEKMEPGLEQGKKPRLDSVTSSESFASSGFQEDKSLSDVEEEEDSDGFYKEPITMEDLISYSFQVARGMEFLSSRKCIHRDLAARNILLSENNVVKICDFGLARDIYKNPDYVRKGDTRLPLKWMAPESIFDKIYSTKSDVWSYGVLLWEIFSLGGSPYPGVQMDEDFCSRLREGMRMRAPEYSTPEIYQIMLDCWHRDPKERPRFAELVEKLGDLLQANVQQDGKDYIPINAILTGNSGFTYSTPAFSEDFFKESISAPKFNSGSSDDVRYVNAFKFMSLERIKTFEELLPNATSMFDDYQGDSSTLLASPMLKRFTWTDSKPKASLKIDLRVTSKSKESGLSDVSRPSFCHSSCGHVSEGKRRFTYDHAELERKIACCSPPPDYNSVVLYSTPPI
T1 sequence (P08581 949-1390 limits assumed): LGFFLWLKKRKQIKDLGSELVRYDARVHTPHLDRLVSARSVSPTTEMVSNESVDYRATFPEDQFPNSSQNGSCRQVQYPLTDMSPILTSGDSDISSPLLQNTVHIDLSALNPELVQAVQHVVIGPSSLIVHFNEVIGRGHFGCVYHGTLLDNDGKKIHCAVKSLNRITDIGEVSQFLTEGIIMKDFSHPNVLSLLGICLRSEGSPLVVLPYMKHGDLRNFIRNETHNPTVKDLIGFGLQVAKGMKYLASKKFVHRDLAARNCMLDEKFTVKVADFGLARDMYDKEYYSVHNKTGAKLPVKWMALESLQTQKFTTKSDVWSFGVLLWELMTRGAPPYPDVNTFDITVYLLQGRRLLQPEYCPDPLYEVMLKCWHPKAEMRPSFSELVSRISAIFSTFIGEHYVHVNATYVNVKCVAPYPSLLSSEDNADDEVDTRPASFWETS
T6 sequence (Q14289 2-1006): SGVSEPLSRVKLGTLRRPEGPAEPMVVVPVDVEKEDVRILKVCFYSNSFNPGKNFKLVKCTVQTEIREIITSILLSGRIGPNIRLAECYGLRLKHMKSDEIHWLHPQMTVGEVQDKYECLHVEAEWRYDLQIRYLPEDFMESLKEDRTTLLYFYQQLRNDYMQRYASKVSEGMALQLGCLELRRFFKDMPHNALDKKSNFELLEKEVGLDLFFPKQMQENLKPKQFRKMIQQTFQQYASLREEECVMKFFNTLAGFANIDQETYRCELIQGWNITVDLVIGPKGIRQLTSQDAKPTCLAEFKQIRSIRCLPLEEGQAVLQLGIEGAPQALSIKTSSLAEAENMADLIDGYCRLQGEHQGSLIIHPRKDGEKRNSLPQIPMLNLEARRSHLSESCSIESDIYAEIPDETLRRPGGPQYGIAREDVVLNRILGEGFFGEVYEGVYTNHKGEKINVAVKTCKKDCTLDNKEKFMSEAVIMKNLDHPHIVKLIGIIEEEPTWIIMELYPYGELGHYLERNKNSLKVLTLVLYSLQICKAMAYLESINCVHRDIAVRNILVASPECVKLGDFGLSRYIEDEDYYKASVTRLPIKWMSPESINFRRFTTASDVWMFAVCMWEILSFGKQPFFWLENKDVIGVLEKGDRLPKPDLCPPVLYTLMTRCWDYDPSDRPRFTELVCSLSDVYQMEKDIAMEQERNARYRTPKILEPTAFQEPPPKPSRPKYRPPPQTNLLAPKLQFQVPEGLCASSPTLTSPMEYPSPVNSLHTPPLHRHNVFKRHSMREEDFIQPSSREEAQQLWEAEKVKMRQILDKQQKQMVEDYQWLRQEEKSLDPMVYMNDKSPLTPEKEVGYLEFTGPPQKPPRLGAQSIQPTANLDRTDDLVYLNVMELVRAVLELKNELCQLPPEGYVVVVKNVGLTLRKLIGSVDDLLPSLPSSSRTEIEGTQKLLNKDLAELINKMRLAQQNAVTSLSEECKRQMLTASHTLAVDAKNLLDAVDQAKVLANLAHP
T7 sequence (P12931 2-536): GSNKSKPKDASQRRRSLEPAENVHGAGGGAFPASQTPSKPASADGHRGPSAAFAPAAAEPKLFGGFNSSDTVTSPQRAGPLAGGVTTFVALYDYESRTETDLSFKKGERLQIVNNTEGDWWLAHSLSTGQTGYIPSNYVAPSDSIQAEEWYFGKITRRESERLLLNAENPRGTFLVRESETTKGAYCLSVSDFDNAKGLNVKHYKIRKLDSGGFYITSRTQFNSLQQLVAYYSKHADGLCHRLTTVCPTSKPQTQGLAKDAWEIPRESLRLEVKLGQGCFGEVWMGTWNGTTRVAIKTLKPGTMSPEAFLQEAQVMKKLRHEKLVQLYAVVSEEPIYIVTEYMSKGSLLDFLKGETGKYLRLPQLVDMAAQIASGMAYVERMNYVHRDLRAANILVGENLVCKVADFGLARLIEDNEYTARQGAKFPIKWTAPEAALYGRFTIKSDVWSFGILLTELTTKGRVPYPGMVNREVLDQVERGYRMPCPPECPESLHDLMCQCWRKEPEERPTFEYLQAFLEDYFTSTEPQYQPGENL
T3 sequence (Q06187 2-659): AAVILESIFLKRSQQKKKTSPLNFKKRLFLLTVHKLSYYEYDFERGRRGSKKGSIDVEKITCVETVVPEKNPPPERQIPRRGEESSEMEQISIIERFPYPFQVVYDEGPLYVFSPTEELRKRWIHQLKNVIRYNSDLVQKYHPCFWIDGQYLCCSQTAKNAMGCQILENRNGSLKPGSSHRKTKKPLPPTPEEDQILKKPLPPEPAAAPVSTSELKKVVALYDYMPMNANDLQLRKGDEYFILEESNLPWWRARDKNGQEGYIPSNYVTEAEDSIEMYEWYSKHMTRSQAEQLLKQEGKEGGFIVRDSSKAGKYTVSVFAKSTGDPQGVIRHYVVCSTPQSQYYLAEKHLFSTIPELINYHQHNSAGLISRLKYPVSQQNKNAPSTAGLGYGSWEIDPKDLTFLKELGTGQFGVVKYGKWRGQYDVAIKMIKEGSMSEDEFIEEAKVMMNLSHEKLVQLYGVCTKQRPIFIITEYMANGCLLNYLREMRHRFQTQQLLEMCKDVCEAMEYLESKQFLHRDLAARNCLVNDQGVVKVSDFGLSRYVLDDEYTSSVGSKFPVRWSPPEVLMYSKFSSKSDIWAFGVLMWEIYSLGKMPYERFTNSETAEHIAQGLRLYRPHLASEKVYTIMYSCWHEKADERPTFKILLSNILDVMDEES
T4 sequence (P11309 whole entry): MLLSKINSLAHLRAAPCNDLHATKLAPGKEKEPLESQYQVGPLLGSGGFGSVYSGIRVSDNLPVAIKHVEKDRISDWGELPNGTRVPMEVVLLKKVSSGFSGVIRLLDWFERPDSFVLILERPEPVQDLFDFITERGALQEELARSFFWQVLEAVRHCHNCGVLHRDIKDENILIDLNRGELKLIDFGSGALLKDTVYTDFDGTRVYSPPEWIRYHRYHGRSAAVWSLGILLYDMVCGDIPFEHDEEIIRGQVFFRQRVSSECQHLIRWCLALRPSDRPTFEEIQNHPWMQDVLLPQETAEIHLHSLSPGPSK

## CS(=O)(=O)O.CS(=O)(=O)O.Cc1ccc(NC(=O)c2ccc(CN3CCN(C)CC3)cc2)cc1Nc1nc(-c2cccnc2)cs1 [masitinib, 4-(4-methylpiperazin-1-ylmethyl)-N-[4-methyl-3-(4-pyridin-3ylthiazol-2-ylamino)phenyl]benzamide-mesylate methane sulfonic acid salt]
c-Met
  IC50: > 10 µM
[1]
  IC50: 10 ± 0.67 µM
c-Fms
  IC50: 1 ± 0.03 µM
VEGFR1
  IC50: > 10 µM
Btk
  IC50: > 10 µM
[2]
  inhibition at 1 µM: ~79.6%
Pim1
  IC50: > 10 µM
[3]
  IC50: 7 ± 0.8 µM
[4]
  IC50: > 10 µM
[5]
  IC50: > 10 µM
Src
  IC50: 1.87 ± 0.31 µM
FMA3 cells
  IC50: ~0.03 µM
Tyk2
  IC50: 9 ± 0.8 µM
Jak1
  IC50: 8 ± 1.4 µM
